Source: PubChem BioAssay AID248 (DTP/NCI, 2004)
Inconclusive results and toxic doses are left out. No stated cut-off is given here; in the data, active means T/C of 150% or more; inactive means T/C below 125%.

System: L1210 leukemia ip in BDF1 mice, survival T/C
Assay: NCI In Vivo Anticancer Drug Screen. Data for tumor model L1210 Leukemia (intraperitoneal) in B6D2F1 (BDF1) mice
Conditions: endpoint: mean survival time, higher = longer survival
Procedure, shortened: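 Each compound was tested against a transplantable tumor grown in mice. The endpoint was survival, with treated animals benchmarked against vehicle controls as a simple ratio.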

[1] = dose: 100.0 mg/kg/injection, schedule: Q04DX002 (ip), vehicle: Klucel (hydroxypropylcellulose) (HPC)
[2] = dose: 200.0 mg/kg/injection, schedule: Q04DX002 (ip), vehicle: Klucel (hydroxypropylcellulose) (HPC)
[3] = dose: 100.0 mg/kg/injection, schedule: Q04DX003 (ip), vehicle: saline
[4] = dose: 200.0 mg/kg/injection, schedule: Q04DX003 (ip), vehicle: saline
[5] = dose: 400.0 mg/kg/injection, schedule: Q04DX003 (ip), vehicle: saline
[6] = dose: 100.0 mg/kg/injection, schedule: Q01DX001 (ip), vehicle: saline
[7] = dose: 200.0 mg/kg/injection, schedule: Q01DX001 (ip), vehicle: saline
[8] = dose: 400.0 mg/kg/injection, schedule: Q01DX001 (ip), vehicle: saline
[9] = dose: 100.0 mg/kg/injection, schedule: Q04DX003 (ip), vehicle: Klucel (hydroxypropylcellulose) (HPC)
[10] = dose: 200.0 mg/kg/injection, schedule: Q04DX003 (ip), vehicle: Klucel (hydroxypropylcellulose) (HPC)
[11] = dose: 400.0 mg/kg/injection, schedule: Q04DX002 (ip), vehicle: Klucel (hydroxypropylcellulose) (HPC)
[12] = dose: 400.0 mg/kg/injection, schedule: Q04DX003 (ip), vehicle: Klucel (hydroxypropylcellulose) (HPC)
[13] = dose: 100.0 mg/kg/injection, schedule: Q04DX003 (ip), vehicle: saline with Tween-80
[14] = dose: 200.0 mg/kg/injection, schedule: Q04DX003 (ip), vehicle: saline with Tween-80
[15] = dose: 400.0 mg/kg/injection, schedule: Q04DX003 (ip), vehicle: saline with Tween-80
[16] = dose: 100.0 mg/kg/injection, schedule: Q01DX009 (ip), vehicle: saline with Tween-80
[17] = dose: 200.0 mg/kg/injection, schedule: Q01DX009 (ip), vehicle: saline with Tween-80
[18] = dose: 400.0 mg/kg/injection, schedule: Q01DX009 (ip), vehicle: saline with Tween-80
[19] = dose: 50.0 mg/kg/injection, schedule: Q01DX009 (ip), vehicle: saline
[20] = dose: 100.0 mg/kg/injection, schedule: Q01DX009 (ip), vehicle: saline
[21] = dose: 200.0 mg/kg/injection, schedule: Q01DX009 (ip), vehicle: saline
[22] = dose: 50.0 mg/kg/injection, schedule: Q01DX009 (ip), vehicle: saline with Tween-80

Measured: T/C

CCOP(=S)(OCC)S/C(C(=O)NC)=C(/C)O
inactive: dose: 6.25 mg/kg/injection, schedule: Q01DX009 (ip), vehicle: Klucel (hydroxypropylcellulose) (HPC) 94 % of control | dose: 12.5 mg/kg/injection, schedule: Q01DX009 (ip), vehicle: Klucel (hydroxypropylcellulose) (HPC) 97 % of control | dose: 100.0 mg/kg/injection, schedule: Q04DX003 (sc), vehicle: olive oil, sesame oil, peanut oil 103 % of control | dose: 200.0 mg/kg/injection, schedule: Q04DX003 (sc), vehicle: olive oil, sesame oil, peanut oil 106 % of control

O=C(Oc1ccc(S(=O)(=O)F)cc1F)c1ccccc1Cl
inactive: [1] 95 % of control | [2] 89 % of control

CC(=O)NCCC(=O)O
inactive: [3] 95 % of control | [4] 101 % of control | [5] 95 % of control

CC1OC(=O)C(C(C)C)NC(=O)C(C(C)C)OC(=O)C(C(C)C)NC(=O)C(C)OC(=O)C(C(C)C)NC(=O)C(C(C)C)OC(=O)C(C(C)C)NC(=O)C(C)OC(=O)C(C(C)C)NC(=O)C(C(C)C)OC(=O)C(C(C)C)NC1=O (centres undefined)
inactive: dose: 0.13 mg/kg/injection, schedule: Q01DX001 (ip), vehicle: saline 103 % of control | dose: 0.25 mg/kg/injection, schedule: Q01DX001 (ip), vehicle: saline 101 % of control | dose: 0.5 mg/kg/injection, schedule: Q01DX001 (ip), vehicle: saline 100 % of control | dose: 1.0 mg/kg/injection, schedule: Q01DX001 (ip), vehicle: saline 98 % of control | dose: 1.25 mg/kg/injection, schedule: Q01DX009 (ip), vehicle: saline with Tween-80 113 % of control | dose: 2.5 mg/kg/injection, schedule: Q01DX009 (ip), vehicle: saline with Tween-80 121 % of control | dose: 5.0 mg/kg/injection, schedule: Q01DX009 (ip), vehicle: saline with Tween-80 113 % of control | dose: 10.0 mg/kg/injection, schedule: Q01DX009 (ip), vehicle: saline with Tween-80 90 % of control

CN(C(=O)CCC(=O)O)c1cc([N+](=O)[O-])ccc1OCc1ccccc1
inactive: dose: 50.0 mg/kg/injection, schedule: Q01DX001 (ip), vehicle: saline 108 % of control | [6] 100 % of control | [7] 105 % of control | [8] 109 % of control

C=CCN1C(=O)C(CCCCCCCCCCCC)C(=O)NC1=S (centres undefined)
inactive: dose: 75.0 mg/kg/injection, schedule: Q01DX001 (ip), vehicle: other 101 % of control | dose: 150.0 mg/kg/injection, schedule: Q01DX001 (ip), vehicle: other 95 % of control | dose: 300.0 mg/kg/injection, schedule: Q01DX001 (ip), vehicle: other 90 % of control

O=C1COc2ccccc2N1
inactive: dose: 50.0 mg/kg/injection, schedule: Q04DX003 (ip), vehicle: Klucel (hydroxypropylcellulose) (HPC) 96 % of control | dose: 100.0 mg/kg/injection, schedule: Q01DX001 (ip), vehicle: other 103 % of control | [9] 94 % of control | dose: 200.0 mg/kg/injection, schedule: Q01DX001 (ip), vehicle: other 96 % of control | [10] 96 % of control

Cn1cnc([N+](=O)[O-])c1[Se]c1ncnc2c1ncn2C1OC(CO)C(O)C1O (centres undefined)
inactive: dose: 12.5 mg/kg/injection, schedule: Q01DX005 (ip), vehicle: saline 104 % of control | dose: 25.0 mg/kg/injection, schedule: Q01DX005 (ip), vehicle: saline 98 % of control

Cc1ccc(S(=O)(=O)Nc2ccccc2)cc1
inactive: [1] 100 % of control | [2] 94 % of control | [11] 91 % of control

Oc1ccc(O)c2c1C1(Cl)C(Cl)=C(Cl)C2(Cl)C1(Cl)Cl
inactive: dose: 100.0 mg/kg/injection, schedule: Q04DX003 (ip), vehicle: other 101 % of control | dose: 200.0 mg/kg/injection, schedule: Q04DX003 (ip), vehicle: other 101 % of control | dose: 400.0 mg/kg/injection, schedule: Q04DX003 (ip), vehicle: other 108 % of control

Nc1ccn(C2OC(CO)C(O)C(O)C2N)c(=O)n1 (centres undefined)
inactive: [6] 97 % of control | [7] 103 % of control | [8] 100 % of control

CCS(=O)(=O)c1nc2ccccc2[nH]1
inactive: [1] 97 % of control | [2] 108 % of control | [11] 108 % of control

O=C(COc1cc(Cl)cc(Cl)c1)NCc1ccc(Cl)cc1
inactive: dose: 100.0 mg/kg/injection, schedule: Q01DX009 (ip), vehicle: Klucel (hydroxypropylcellulose) (HPC) 91 % of control | [9] 95 % of control | dose: 200.0 mg/kg/injection, schedule: Q01DX009 (ip), vehicle: Klucel (hydroxypropylcellulose) (HPC) 88 % of control | [10] 95 % of control | dose: 400.0 mg/kg/injection, schedule: Q01DX009 (ip), vehicle: Klucel (hydroxypropylcellulose) (HPC) 95 % of control | [12] 88 % of control

O=C(N/N=C/c1ccc2c(c1)CCC2)c1ccccc1N=Cc1ccc2c(c1)CCC2
inactive: [9] 86 % of control | [10] 96 % of control | [12] 92 % of control

CN1CCC(CSC(=O)C(O)(c2ccccc2)C2CCCCC2)C1 (centres undefined)
inactive: dose: 75.0 mg/kg/injection, schedule: Q01DX001 (ip), vehicle: saline 97 % of control

COc1cccc(C(=O)c2ccccc2NC(C)=O)c1
inactive: [13] 93 % of control | [14] 94 % of control | [15] 93 % of control

NC(=O)C1CCC(C(N)=O)CC1 (centres undefined)
inactive: dose: 100.0 mg/kg/injection, schedule: Q01DX001 (ip), vehicle: saline with Tween-80 106 % of control | [16] 100 % of control | [13] 100 % of control | dose: 200.0 mg/kg/injection, schedule: Q01DX001 (ip), vehicle: saline with Tween-80 98 % of control | [17] 100 % of control | [14] 115 % of control | dose: 400.0 mg/kg/injection, schedule: Q01DX001 (ip), vehicle: saline with Tween-80 98 % of control | [18] 107 % of control | [15] 102 % of control

CC(C)CC(NC(=O)C(F)(F)F)C(=O)O (centres undefined)
inactive: [13] 97 % of control | [14] 90 % of control

CCOP(=O)(NN(C)C)OCC
inactive: dose: 12.5 mg/kg/injection, schedule: Q01DX009 (ip), vehicle: saline 107 % of control | dose: 12.5 mg/kg/injection, schedule: Q04DX003 (ip), vehicle: saline 96 % of control | dose: 25.0 mg/kg/injection, schedule: Q01DX009 (ip), vehicle: saline 104 % of control | dose: 25.0 mg/kg/injection, schedule: Q04DX003 (ip), vehicle: saline 104 % of control | [19] 102 % of control | dose: 50.0 mg/kg/injection, schedule: Q04DX003 (ip), vehicle: saline 107 % of control | [20] 102 % of control | [3] 101 % of control | [21] 95 % of control | [4] 106 % of control | dose: 400.0 mg/kg/injection, schedule: Q01DX009 (ip), vehicle: saline 112 % of control | [5] 96 % of control

CCOC(=O)C(=O)CC1=NC2CCCCC2N(C)C1=O (centres undefined)
inactive: [19] 93 % of control | [20] 90 % of control | [21] 90 % of control

O=C(CC(O)(C(F)(F)F)C(F)(F)F)c1ccc(-c2ccccc2)cc1
inactive: [22] 96 % of control | dose: 50.0 mg/kg/injection, schedule: Q04DX003 (ip), vehicle: saline with Tween-80 101 % of control | [16] 98 % of control | [13] 104 % of control | [17] 100 % of control | [14] 97 % of control | [18] 101 % of control | [15] 93 % of control

CCOC(=O)C1(C#N)C(=O)CSC1=Nc1ccccc1Cl (centres undefined)
inactive: dose: 100.0 mg/kg/injection, schedule: Q04DX002 (ip), vehicle: saline with Tween-80 95 % of control | dose: 200.0 mg/kg/injection, schedule: Q04DX002 (ip), vehicle: saline with Tween-80 102 % of control | dose: 400.0 mg/kg/injection, schedule: Q04DX002 (ip), vehicle: saline with Tween-80 95 % of control

Cc1cccc([N+](=O)[O-])n1
inactive: dose: 25.0 mg/kg/injection, schedule: Q01DX009 (ip), vehicle: saline with Tween-80 94 % of control | [22] 94 % of control | [13] 89 % of control

CC(C)(C)CC(C)(C)NS(=O)(=O)NC(C)(C)CC(C)(C)C
inactive: [16] 103 % of control | [17] 93 % of control | [18] 92 % of control
